Source: patent US20260240844A1, “INHIBITORS OF CHD1L AND USES THEREOF” (The Regents of the University of Colorado, a body corporate, priority 2023, published 2026)
Where two headings read alike, the source gives them in different places.

How the values were obtained:
SW620 Parental cells = assay: SW620 Parental cell viability, combination with chemotherapy; type: cell-based; settings: SW620 cells
AIF in SUM149PT cells = assay: AIF immunofluorescence in SUM149PT (SUM149) cells; type: cell-based; settings: SUM149 cells, 4 μM
Description: CHD1Li-mediated PAR translocation to the cytoplasm activates PARthanatos as a cell death mechanism. Parthanatos is a form a programmed cell death different from apoptosis and known to be mediated by PARP1 overactivation. The unique events occurring during parthanatos are: PARP1 rapid activation, accumulation of PAR and nuclear translocation of apoptosis inducing factor (AIF). Without being bound by any particular theory, accumulation of PAR in the cytoplasm caused by CHD1Li can also mediate parthanatos. To better understand the link between PAR translocation to the cytoplasm and cell death, immunofluorescence to measure the activation of caspase-3 and the subcellular localization of AIF after treatment with SOC drugs and Compound 6 in SUM49PT cells was used. […] Without being bound by any particular theory, this might be caused by the mitochondrial outer membrane permeabilization, which triggers release of mitochondrial proteins like AIF or cytochrome c, activating caspase-3 by its cleavage and leading to apoptosis. […] Moreover, when combining CHD1L inhibition with SOC drugs, the cell death mechanism shifts from apoptosis to parthanatos, evidenced by a significant increase in AIF nuclear translocation and decrease in activation of caspase-3 (FIG. 25D-E).
(§1) The ability of Compounds 12, 15 and 16 to localize AIF was tested in SUM149 (breast cancer) and MDA-MB-231 (TNBC) cell lines. A comparison of the relative distribution of AIF in nuclei (a) versus cytoplasm (b) in SUM149 cells and nuclei (c) versus cytoplasm (d) in MDA-MB-231 cells in the presence of 4 μM Compounds 12, 15 and 16 are shown in FIG. 28. […] Similarly, AIF concentration in the cytoplasm of MDA-MB-231 cells decreased by about 0.5 after administration with Compound 15. After treatment with Compound 16, the relative concentration of AIF in the nuclei of SUM149 cells increased by about 0.5-fold, and the concentration of AIF in the cytoplasm decreased by about 0.4-fold. In MDA-MB-231 cells, the relative concentration of AIF in the cytoplasm decreased by about 0.5-fold, while the concentration of AIF increased in the nuclei by about 0.1-fold.

HCT116 Parental cells = assay: HCT116 Parental cell viability, combination with chemotherapy; type: cell-based; settings: HCT116 cells
[1] = system: SUM149 and MDA-MB-231 cells; assay: DDR biomarkers in breast cancer cells; type: cell-based; settings: 4 μM
Description: (§2) Etoposide was used as a control to show upregulation of DDR pathway biomarkers.

AIF in MDA-MB-231 cells = assay: AIF localization in MDA-MB-231 cells; type: cell-based; settings: 4 μM
Method: as §1

Colo678 cells = assay: Colo678 cell viability, combination with chemotherapy; type: cell-based; settings: Colo678 cells, 72 h; combined with SN-38
MiaPaca2 cells = assay: MiaPaca2 cell viability, combination with chemotherapy; type: cell-based; settings: MiaPaca2 cells
Description: The cell viability assays and Bliss synergy analyses are as described above in Examples 1-9 and 11-12.

Colo679 cells = assay: DDR biomarkers (pATM, RAD51, 53BP1, γ-H2AX) in Colo679 cells; type: cell-based; settings: 4 μM
Description: as §2

[2] = system: SW620 CRC cells cultured as tumor organoids; assay: Viability of isolated EMT phenotype SW620 tumor organoids; type: cell-based; settings: SW620 E, E/M, 72 h, combined with Compound 6
Method: FIG. 5A provides graphs showing isolated quasi EMT SW620 CRC cells E (red), E/M (yellow), and M (green) were cultured as tumor organoids and treated with SN38 combined with Compound 6 over 72 h as indicated. […].
CHD1L also regulates DNA repair via CHD1L/TCF-driven EMT by upregulating ZEB1 in CRC. ZEB1 promotes mesenchymal cell survival by upregulating the DDR. CHD1Li may sensitize isolated quasi EMT phenotypes by inhibiting EMT and DNA repair. To test this, combination studies with Compound 6 and chemotherapy measuring the viability of isolated EMT dual-reporter quasi-E, -E/M, and -M SW620 (HR-proficient) cells and HCT116 (HR-deficient) cells cultured as tumor organoids were tested. […]. […] […]. Taken together, CHD1Li synergized with chemotherapy and targeted therapy to overcome EMT-mediated drug resistance in CRC.

SW620 tumor organoids = settings: 72 h; for IC50: read-out: IC50 SN38
SW948 tumor organoids = assay: cells
Method: ATM is an important protein involved in the initial stages of the DNA damage response. […] ATM mutations are important markers being developed to identify metastatic CRC (mCRC) patients that may be sensitive to DNA damaging chemotherapy.
Synergy was assessed using the Bliss model.

[3] = SW620 tumor organoids, + Compound 6.11 2.75 μM

Cc1cc(Nc2ccc(NC(=O)c3cc(Br)c[nH]3)cc2)nc(N2CCCC2)n1 [Compound 12, 4-bromo-N-(4-((6-methyl-2-(pyrrolidin-1-yl)pyrimidin-4-yl)amino)phenyl)-1H-pyrrole-2-carboxamide]
calculated mean synergy score (SW620 Parental cells; 72 h, combined with SN-38): about 53 | calculated mean synergy score (SW620 Parental cells; combined with 5-FU): about 39 | decrease in AIF in the cytoplasm (AIF in SUM149PT cells): decrease in AIF in the cytoplasm | increase in AIF in the nucleus (AIF in SUM149PT cells): ~1 fold | calculated mean synergy score (HCT116 Parental cells; 72 h, combined with SN-38): about 20 | calculated mean synergy score (HCT116 Parental cells; combined with 5-FU): about 19 | amounts of γ-H2AX and 53BP1 [1]: overall decreases in the amounts of γ-H2AX and 53BP1 | increase in AIF in the nuclei (AIF in MDA-MB-231 cells): localized in both the nuclei and remained in the cytoplasm | calculated mean synergy score (Colo678 cells): about 26 | calculated mean synergy score (MiaPaca2 cells; combined with 5-FU): about 57 | calculated mean synergy score (MiaPaca2 cells; combined with SN-38): about 18 | amount of 53BP1 (Colo679 cells): decrease the amount of 53BP1 | amount of RAD51 (Colo679 cells): decrease in RAD51 | amount of pATM (Colo679 cells): increased the amount of pATM | γ-H2AX concentrations (Colo679 cells): decreased

Cc1cc(Nc2ccc(NC(=O)Cc3c[nH]c4c(Cl)cccc34)cc2)nc(N2CCCC2)n1 [Compound 16, 2-(7-chloro-1H-indol-3-yl)-N-(4-((6-methyl-2-(pyrrolidin-1-yl)pyrimidin-4-yl)amino)phenyl)acetamide]
decrease in AIF in the cytoplasm (AIF in SUM149PT cells): about 0.4 fold | increase in AIF in the nucleus (AIF in SUM149PT cells): about 0.5 fold | amounts of γ-H2AX and 53BP1 [1]: overall decreases in the amounts of γ-H2AX and 53BP1 | decrease in AIF in the cytoplasm (AIF in MDA-MB-231 cells): about 0.5 fold | increase in AIF in the nuclei (AIF in MDA-MB-231 cells): about 0.1 fold | calculated mean synergy score (Colo678 cells): about 26 | amount of 53BP1 (Colo679 cells): decrease the amount of 53BP1 | amount of pATM (Colo679 cells): increased the amount of pATM | γ-H2AX concentrations (Colo679 cells): decreased

CCc1c2c(nc3ccc(O)cc13)-c1cc3c(c(=O)n1C2)COC(=O)[C@]3(O)CC [SN-38]
increase of SN38 cytotoxic potency [2]: hundreds-of-fold to thousands-of-fold | increase in cytotoxic potency compared to drug alone (SW620 tumor organoids; [3]): ~ 600 fold | IC50 (SW620 tumor organoids; SW620 (ATM wt) tumor organoids, SN38 alone): ~600 nM | IC50 (SW620 tumor organoids; [3]): ~1 nM | increase in potency of the chemotherapy (SW948 tumor organoids; SW948 tumor organoids, combined with Compound 6): 1000 fold | improvement of cytotoxic potency (SW948 tumor organoids; SW948 tumor organoids, combined with Compound 6.11): 1,000 fold | IC50 (SW948 tumor organoids; read-out: IC50 SN38, SW948 tumor organoids, SN38 alone): 3160 nM | IC50 (SW948 tumor organoids; read-out: IC50 SN38, SW948 tumor organoids, combined with Compound 6.11): 3.2 nM | IC50 (SW948 tumor organoids; read-out: IC50 SN-38, SW948 tumor organoids, combined with Compound 6): ~3 nM | IC50 (SW948 tumor organoids; read-out: IC50 of chemotherapy alone, SW948 chemo resistant tumor organoids): ~3000 nM
